Results taken from the OligoGym collection.
Several values for one entry are separate records, joined by “and”; a condition that tells them apart may be missing. Equal entries are not always repeated. After the bases stand the sugars from the 5' end (letter, count) and the backbone: PS all phosphorothioate, else s phosphorothioate and o phosphodiester by linkage. Methylation of C is not given here. e = 2'-O-(2-methoxyethyl) (MOE); l = locked nucleic acid (LNA); k = constrained ethyl (cEt); d = 2'-deoxy (DNA)

Tests used:
APOL1 = conditions: ASO
SNHG14 = conditions: ASO, Human Neuronal Cell

For “AACACATCATTGGGTT (sugars kkkddddkekeddddd, PS)”, the target mRNA inhibition (APOL1; A431, 2 µM) was 21%.

In the case of AACATTGAAACACCAG (sugars k4 d9 k3, PS), the target mRNA inhibition (APOL1; A431, 0.0625 µM) is reported as 35%, the target mRNA inhibition (APOL1; A431, 0.25 µM) is reported as 71% and the target mRNA inhibition (APOL1; A431, 1 µM) is reported as 89%.

“AACGCAATGCTGACTT (sugars kkkddddkekeddddd, PS)” showed a target mRNA inhibition (APOL1; A431, 2 µM) of 83%.

For “AAGATTGGCTCTGGCT (sugars kkddddekekeddddd, PS)”, the target mRNA inhibition (APOL1; A431, 2 µM) was 66%.

For “AAGATTGGCTCTGGCT (sugars kkddddkdkdkddddd, PS)”, the target mRNA inhibition (APOL1; A431, 2 µM) was 65%.

In the case of “AAGCTTTAAACTCAGG (sugars k2 d4 e3 k2 d5, PS)”, the target mRNA inhibition (APOL1; A431, 0.0156 µM) is reported as 15%, the target mRNA inhibition (APOL1; A431, 0.0625 µM) is reported as 48% and the target mRNA inhibition (APOL1; A431, 0.25 µM) is reported as 76%. The target mRNA inhibition (APOL1; A431, 1 µM) was 92% and the target mRNA inhibition (APOL1; A431, 2 µM) was 95%.

Work on “AAGCTTTAAACTCAGG (sugars k3 d4 k3 e1 d5, PS)” yielded a target mRNA inhibition (APOL1; A431, 2 µM) of 72%.

With “AAGCTTTAAACTCAGG (sugars kkddddkekekddddd, PS)” the target mRNA inhibition (APOL1; A431, 2 µM) was 48%.

For “AAGTATTGCCAGCTAA (sugars k2 d4 e3 k2 d5, PS)”, the target mRNA inhibition (APOL1; A431, 2 µM) was 63%.

“AAGTATTGCCAGCTAA (sugars kdddddkekekddddd, PS)” was tested, and the target mRNA inhibition (APOL1; A431, 2 µM) was 54%.

AAGTCAGTACAGAGCA (sugars k4 d9 k3, PS) showed a target mRNA inhibition (APOL1; A431, 0.0625 µM) of 52%, a target mRNA inhibition (APOL1; A431, 0.25 µM) of 79% and a target mRNA inhibition (APOL1; A431, 1 µM) of 89%.

In the case of AATAATGGTAGGTCTA (sugars k4 d9 k3, PS), the target mRNA inhibition (APOL1; A431, 0.0625 µM) is reported as 41%, the target mRNA inhibition (APOL1; A431, 0.25 µM) is reported as 71% and the target mRNA inhibition (APOL1; A431, 1 µM) is reported as 84%.

In the case of “AATTCTATTAGAGGGC (sugars kkddddekekeddddd, PS)”, the target mRNA inhibition (APOL1; A431, 2 µM) is reported as 79%.

With “ACACATCATTGGGTTA (sugars k2 d4 e3 k2 d5, PS)” the target mRNA inhibition (APOL1; A431, 2 µM) was 51%.

Work on ACACATCATTGGGTTA (sugars k4 d9 k3, PS) yielded a target mRNA inhibition (APOL1; A431, 0.0625 µM) of 54%, a target mRNA inhibition (APOL1; A431, 0.25 µM) of 75% and a target mRNA inhibition (APOL1; A431, 1 µM) of 87%.

“ACACATCATTGGGTTA (sugars kkddddkekekkdddd, PS)” was tested, and the target mRNA inhibition (APOL1; A431, 2 µM) was 20%.

Work on “ACACATCATTGGGTTA (sugars kkkddddkdkdkdddd, PS)” yielded a target mRNA inhibition (APOL1; A431, 2 µM) of 48%.

For “ACATCATTGGGTTATG (sugars kdddddkekekddddd, PS)”, the target mRNA inhibition (APOL1; A431, 2 µM) was 89%.

“ACATCATTGGGTTATG (sugars kddddkekekeddddd, PS)” showed a target mRNA inhibition (APOL1; A431, 2 µM) of 76%.

Sequence “ACGCAATGCTGACTTG (sugars kkddddkekekkdddd, PS)” has a target mRNA inhibition (APOL1; A431, 2 µM) of 72%.

For ACTCAAGTCAGTACAG (sugars k4 d9 k3, PS), the target mRNA inhibition (APOL1; A431, 0.0625 µM) was 27%, the target mRNA inhibition (APOL1; A431, 0.25 µM) was 58% and the target mRNA inhibition (APOL1; A431, 1 µM) was 77%.

Sequence ACTCCTTATGTTTTGA (sugars k4 d9 k3, PS) has a target mRNA inhibition (APOL1; A431, 0.0625 µM) of 46%, a target mRNA inhibition (APOL1; A431, 0.25 µM) of 75% and a target mRNA inhibition (APOL1; A431, 1 µM) of 91%.

For ACTGTTCTAACTCTTG (sugars k4 d9 k3, PS), the target mRNA inhibition (APOL1; A431, 0.0625 µM) was 85%, the target mRNA inhibition (APOL1; A431, 0.25 µM) was 92% and the target mRNA inhibition (APOL1; A431, 1 µM) was 95%.

“ACTTTATACCAGTGTC (sugars kkkddddkekeddddd, PS)” showed a target mRNA inhibition (APOL1; A431, 2 µM) of 65%.

For AGAACTCAAGTCAGTA (sugars k4 d9 k3, PS), the target mRNA inhibition (APOL1; A431, 0.0625 µM) was 38% and 62%, the target mRNA inhibition (APOL1; A431, 0.25 µM) was 67% and 83% and the target mRNA inhibition (APOL1; A431, 1 µM) was 86% and 88%.

“AGATTGGCTCTGGCTC (sugars kddddkekekeddddd, PS)” showed a target mRNA inhibition (APOL1; A431, 2 µM) of 23%.

In the case of “AGCTTTAAACTCAGGT (sugars kddddkekekeddddd, PS)”, the target mRNA inhibition (APOL1; A431, 2 µM) is reported as 52%.

In the case of “AGCTTTAAACTCAGGT (sugars kkddddkekekkdddd, PS)”, the target mRNA inhibition (APOL1; A431, 2 µM) is reported as 16%.

“TTATAGCCATTCTATCT (sugars ldlddddddddlddlll, PS)” gave a target mRNA inhibition (SNHG14; 7.5 µM) of 57%.

Work on “TTATAGCCATTCTATCT (sugars llddlddddddlddlll, PS)” yielded a target mRNA inhibition (SNHG14; 7.5 µM) of 39%.

“TTATAGCCATTCTATCT (sugars llddlddddddldldll, PS)” showed a target mRNA inhibition (SNHG14; 7.5 µM) of 5%.

In the case of “TTATCATTTCATATTACT (sugars l4 d12 l2, PS)”, the target mRNA inhibition (SNHG14; 0.2 µM) is reported as 16% and the target mRNA inhibition (SNHG14; 1 µM) is reported as 34%.

With TTATTTATACACCATC (sugars l2 d10 l4, PS) the target mRNA inhibition (SNHG14; 0.2 µM) was 78% and the target mRNA inhibition (SNHG14; 1 µM) was 74%.

“TTATTTCCATTTATTTTCA (sugars ldlldddddddddlddlll, PS)” was tested, and the target mRNA inhibition (SNHG14; 7.5 µM) was 68%.

“TTATTTCCATTTATTTTCA (sugars llddlddddddddldldll, PS)” was tested, and the target mRNA inhibition (SNHG14; 7.5 µM) was 66%.

For TTCAACCCTAATCACT (sugars l4 d10 l2, PS), the target mRNA inhibition (SNHG14; 0.2 µM) was 39% and the target mRNA inhibition (SNHG14; 1 µM) was 50%.

Work on “TTCACCAGTATTTCTTC (sugars l4 d11 l2, PS)” yielded a target mRNA inhibition (SNHG14; 0.2 µM) of 36% and a target mRNA inhibition (SNHG14; 1 µM) of 32%.
